{
  "source": "patent US20050170345A1",
  "about": "“Neuroglobin is up-regulated by and protects neurons from hypoxic-ischemic injury” (priority 2001, published 2005)",
  "key": {"[1]": {"system": "17-20 kDa caspase-3 cleavage product", "experiment": "Caspase-3 cleavage product immunofluorescence in ODN-transfected cortical neurons", "format": "cell-based, mouse", "conditions": "fluorescence microscopy, hypoxic cortical neurons", "procedure": "Cultures were fixed with 4% paraformaldehyde and incubated over night at 4° C. with one or more of the following primary antibodies: rabbit polyclonal anti-Ngb (1:200), mouse monoclonal anti-NeuN (1:200, Chemicon), and rabbit polyclonal anti-17-20 kDa caspase-3 cleavage product (1:100, New England Biolabs). The secondary antibodies (all 1:200) were fluorescein isothiocyanate-conjugated goat anti-rabbit or anti-mouse IgG (Vector) and rhodamine-conjugated donkey anti-rabbit IgG (Jackson ImmunoResearch). Controls for non-specific binding included omitting primary (FIG. 1C) or secondary antibodies. In addition, in some cultures, nuclei were labeled with 4′,6-diamidino-2-phenylindole (DAPI) or DNA strand breaks were labeled with the Klenow fragment of DNA polymerase I (Roche) followed by rhodamine avidin D (Vector), as described (Jin et al. (1999) J Neurochem 72: 1204-1214). Fluorescence signals were detected with a Nikon E800 epifluorescence microscope using excitation/emission wavelengths of 535/565 nm for rhodamine (red), 470/505 nm for fluorescein isothiocyanate (green) and 360/400 nm for DAPI (blue). Results were recorded with a Magnifire digital color camera (Optronics). […]"}, "[2]": {"system": "vascular endothelial growth factor", "conditions": "aortic smooth muscle cells; cited from earlier work"}, "[3]": {"system": "Ngb protein", "experiment": "Ngb protein expression in HN33 cells (Western blot)", "format": "cell-based, mouse", "conditions": "HN33 cells; for effect on induction of Ngb expression by hemin (Western blot): 1 h pretreatment then 50 μM hemin 24 h, LY83583 1 μM, KT5823 8 μM, GF109203X 10 μM, PD98059 20 μM", "procedure": "(§1) HN33 cells were cultured as described (Lee et al. (1990) J Neurosci. 10: 1779-1787; Shi et al. (1998) J Neurochem., 70:1035-1044; Jin et al. (2000) Proc Nati Acad Sci USA., 97:10242-10247). Cells were plated at 4×10^5 cells/well onto uncoated, 6-well plastic culture dishes in Dulbecco's modified Eagle's medium containing 10% (v/v) fetal bovine serum, 100 units/ml of penicillin and 100 μg/ml of streptomycin, and maintained at 37° C. in humidified 95% air/5% CO2. Cells were treated with hemin (typically 50 μM) or 8-Br-cGMP (10 μM) for up to 3 days, without daily replacement. To suppress sGC or PKG activity, cells were pretreated for 1 hour with inhibitors before adding other reagents.\n(§2) Cells were washed twice in PBS, and whole-cell extracts were prepared by adding 10 volumes of 1× sample buffer containing 2% SDS, 100 mM dithiothreitol, 60 mM Tris (pH 6.8) and 10% glycerol, and boiled for 5 minutes. Protein concentrations were determined using Bradford Protein Assays (Bio-Rad, Hercules, Calif.); 30 μg of protein was analyzed by 12% or 15% SDS-PAGE and transferred to Immuno-Blot PVDF membranes (Bio-Rad). Membranes were probed with affinity-purified anti-Ngb antibody, which was produced by immunizing with a synthetic peptide corresponding to amino-acids 35-50 (NH2-CLSSPEFLDHIRKVML-COOH, (SEQ ID NO:11) of mouse Ngb (Sun et aL (2001 Proc Natl Acad Sci USA. 98:15306-15311),and the signal was detected with Boehringer Mannheim chemiluminescence blotting kits. Differences in protein expression on Western blots were quantified using a GS-710 calibrated imaging densitometer and Quantity One software (Bio-Rad)."}, "[4]": {"system": "Ngb mRNA", "experiment": "Ngb mRNA expression in HN33 cells (RT-PCR, quantitative RT-PCR, Northern blot)", "format": "cell-based, mouse", "conditions": "HN33 cells; for effect on hemin-induced Ngb expression at the mRNA level (quantitative RT-PCR): 1 h pretreatment then 50 μM hemin 24 h, LY83583 1 μM, KT5823 8 μM", "procedure": "as §1\nRT-PCR and Northern blot analyses were carried out as described previously (Zhu and Zhang (1999) Biochem Biophys Res Commun., 258:87-93). Briefly, total RNA from treated and untreated cells was extracted using a RNeasy Mini Kit (QIAGEN Operon, Valencia, Calif.), and DNA-free total RNA (2 μg per sample) was reverse-transcribed into first-strand cDNA using the Reverse Transcription System and Oligo-dT12-18 (GIBCO-BRL, Rockville, Md.) (Id.). Sequences of the primers used for PCR amplification were: Ngb forward, 5′ CTCTGGAACATGGCACTGTC 3′ (nt 135-154, SEQ ID NO:7); Ngb reverse, 5′ GCACTGGCTCGTCTCTTACT 3′ (nt 547-528, SEQ ID NO:8); β-actin forward, 5′ CACAGGCATTGTGATGGACTC 3′ (nt 524-544, SEQ ID NO:9); β-actin reverse, 5′ GCTCAGGAGGAGCAATGATCT 3′ (nt 582-563, (SEQ ID NO:10). Primers were designed based on the published sequences of these genes and were synth esized by QIAGEN Operon. All PCR primer pairs gave rise to only one discrete band of the expected size. PCR reactions were carried out in a total volume of 25 μl containing 2 μl cDNA, 1×PCR buffer (Boehringer Mannheim, Mannheim, FRG), 200 μM dNTPs, 0.6 U Taq DNA polymerase (Boehringer Mannheim), and 0.2 μM primers. The optimal conditions for amplification (temperature and cycle number) were determined experimentally according to previously published procedures (Id.). Different ratios of Ngb to b-actin primer pairs were tested to ensure that Ngb and b-actin were amplified with similar efficiency, and a kinetic study was undertaken to establish the number of cycles sufficient to detect both Ngb and b-actin without reaching saturation for either. The parameters chosen for PCR amplification were 95° C. for 1 minute, 57° C. for 45 seconds, 72° C. for 1 minute for 25-30 cycles, and a final incubation at 72° C. for 10 minutes. PCR products were separated on 1.2% agarose gels, visualized by ethidium bromide staining, and quantified using a ChemiImage System (Alpha Innotech Corporation, San Leandro, Calif.).\nFor Northern blotting, 15 μg of total RNA from each sample was fractionated on 1% formaldehyde/agarose gels and transferred to Hybond-N nylon membranes (Amersham Pharmacia, Piscataway, N.J.). Filters were hybridized with probes for Ngb MRNA, and β-actin mRNA at 68° C. in hybridization buffer (Clontech, Palo Alto, Calif.). ^32P-radiolabeled DNA probes were synthesized using cDNA obtained from RT-PCR amplification.\nQuantitative RT-PCR analysis was carried out as described previously.8 PCR reactions were carried out in a total volume of 25 μl containing 1 μI cDNA, 1×PCR buffer (Boehringer Mannheim), 200 μM dNTPs, 0.6 U Taq DNA polymerase (Boehringer Mannheim), two pairs of primers (one pair for the Ngb gene, another for the b-actin gene used as an internal control). The optimal conditions for amplification (the proportion between the two pairs of primers, temperatures, and cycle numbers) were determined experimentally according to previously established procedures.8 PCR products were separated on 1.2% agarose gels, visualized by ethidium bromide staining, and quantified using a ChemiImage System (Alpha Innotech Corporation)."}, "[5]": {"system": "Ngb", "experiment": "Ngb expression in cultured cortical neurons treated with hypoxia mimetics or other stressors (Western blot)", "format": "cell-based, mouse"}, "[6]": {"system": "Ngb", "experiment": "Hypoxia-induced Ngb expression in HN33 cells pretreated with protein kinase inhibitors (Western blot)", "format": "cell-based, mouse", "conditions": "inhibitor 1 hour then hypoxia (95% N2/5% CO2) 20 hours", "procedure": "FIGS. 10A and 10B show the effects of protein kinase inhibitors on hypoxia-induced Ngb expression. HN33 cells were treated with protein kinase inhibitors at the indicated concentrations for 1 hour, and then exposed to hypoxia (95% N2/5% CO2) for 20 hours. Western blotting was used to detect Ngb protein expression (FIG. 10A), which was quantified by computer densitometry (FIG. 10B). Data are representative blots (top) or means±SEM (bottom) from 3 experiments. *P<0.05 for drug treatment relative to hypoxia alone.\nas §2"}},
  "note": "Entries after “also recorded” stand apart in the source; their conditions may differ. Where two headings read alike, the source gives them in different places. {Fluorescein} = fluorescein label",
  "data": [
    {"compound": "5′-ATG GAG CGC CCG GA-3′ (sense ATGGAGCGCCCGGA; DNA, 5' {Fluorescein}, backbone and methylation of C not given here) [sense ODN]", "values": [
      {"measurement": "transfected cells co-expressing the 17-20 kDa caspase-3 cleavage product", "setting": "[1]", "result": "few"}
    ]},
    {"compound": "Nc1nc2c(nc(Br)n2[C@@H]2O[C@@H]3COP(=O)(O)O[C@H]3[C@H]2O)c(=O)[nH]1", "note": "[8-Br-cGMP]", "values": [
      {"measurement": "effect on hypoxic induction of vascular endothelial growth factor", "setting": "[2]", "result": "suppress"},
      {"measurement": "inductive effect of hemin on neuroglobin reproduced by the agent", "setting": "[3]", "result": "mimicked"},
      {"measurement": "increase in Ngb protein expression", "setting": "[3]; 10 μM 8-Br-cGMP, 2-24 h", "result": "2- to 2.5 fold"},
      {"measurement": "increase in Ngb mRNA expression", "setting": "[4]; 10 μM 8-Br-cGMP, 2-24 h", "result": "3- to 4 fold"}
    ]},
    {"compound": "[Cl-].[Cl-].[Co+2]", "note": "[CoCl2]", "values": [
      {"measurement": "Ngb expression", "setting": "[5]", "result": "increased Ngb expression"}
    ]},
    {"compound": "CN(C)CCCn1cc(C2=C(c3c[nH]c4ccccc34)C(=O)NC2=O)c2ccccc21", "note": "[GF109203X]", "values": [
      {"measurement": "effect on induction of Ngb expression by hemin (Western blot)", "setting": "[3]", "result": "no significant effect"}
    ]},
    {"compound": "COC(=O)[C@@]1(OC)C[C@H]2O[C@]1(C)n1c3ccccc3c3c4c(c5c6ccccc6n2c5c31)C(=O)N(C)C4", "note": "[KT5823]", "values": [
      {"measurement": "effect on induction of Ngb expression by hemin (Western blot)", "setting": "[3]", "result": "attenuated; also recorded: significantly diminished"},
      {"measurement": "effect on hemin-induced Ngb expression at the mRNA level (quantitative RT-PCR)", "setting": "[4]", "result": "significantly inhibited"},
      {"measurement": "effect on hypoxic induction of Ngb", "setting": "[6]", "result": "not blocked"}
    ]},
    {"compound": "O=C1C(Nc2ccccc2)=CC(=O)c2ncccc21", "note": "[LY83583]", "values": [
      {"measurement": "effect on induction of Ngb expression by hemin (Western blot)", "setting": "[3]", "result": "attenuated; also recorded: significantly diminished"},
      {"measurement": "effect on hemin-induced Ngb expression at the mRNA level (quantitative RT-PCR)", "setting": "[4]", "result": "significantly inhibited"},
      {"measurement": "effect on hypoxic induction of Ngb", "setting": "[6]", "result": "not blocked"}
    ]},
    {"compound": "COc1cccc(-c2cc(=O)c3ccccc3o2)c1N", "note": "[PD98059]", "values": [
      {"measurement": "effect on induction of Ngb expression by hemin (Western blot)", "setting": "[3]", "result": "no significant effect"},
      {"measurement": "effect on hypoxic induction of Ngb", "setting": "[6]", "result": "blocked"}
    ]},
    {"compound": "CN[C@@H]1C[C@H]2O[C@@](C)([C@@H]1OC)n1c3ccccc3c3c4c(c5c6ccccc6n2c5c31)C(=O)NC4", "note": "[staurosporine]", "values": [
      {"measurement": "Ngb expression", "setting": "[5]; cultured cortical neurons treated 24 h, 300 μM CoCl2 (Co2+), 100 μM Dfx, 0.1 μM staurosporine, 500 μM SNP, Western blot", "result": "did not increase Ngb expression; also recorded: no change"}
    ]}
  ]
}
